Measured values reported in ChEMBL document CHEMBL1201862, “PubChem BioAssay data set” (2004).
Calls of active or inactive are those of the source.

Columns and labels:
[1] = target: T1, Tyrosine-protein phosphatase non-receptor type 7 (Homo sapiens, UniProt P35236); format: functional
T1 sequence (P35236 whole entry): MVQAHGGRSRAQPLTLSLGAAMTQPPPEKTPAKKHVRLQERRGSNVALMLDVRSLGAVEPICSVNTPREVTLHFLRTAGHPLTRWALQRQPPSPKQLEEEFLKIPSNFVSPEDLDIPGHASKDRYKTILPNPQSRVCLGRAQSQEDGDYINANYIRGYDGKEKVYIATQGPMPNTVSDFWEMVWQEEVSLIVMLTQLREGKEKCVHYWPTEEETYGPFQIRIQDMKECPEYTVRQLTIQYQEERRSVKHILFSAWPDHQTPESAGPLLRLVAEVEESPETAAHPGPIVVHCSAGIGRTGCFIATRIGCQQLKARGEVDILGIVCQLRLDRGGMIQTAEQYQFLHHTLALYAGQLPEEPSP

[2] = target: Glyceraldehyde-3-phosphate dehydrogenase (Homo sapiens, UniProt P04406)
[3] = target: T2, Dual specificity protein phosphatase 6 (Rattus norvegicus, UniProt Q64346)
T2 sequence (Q64346 whole entry): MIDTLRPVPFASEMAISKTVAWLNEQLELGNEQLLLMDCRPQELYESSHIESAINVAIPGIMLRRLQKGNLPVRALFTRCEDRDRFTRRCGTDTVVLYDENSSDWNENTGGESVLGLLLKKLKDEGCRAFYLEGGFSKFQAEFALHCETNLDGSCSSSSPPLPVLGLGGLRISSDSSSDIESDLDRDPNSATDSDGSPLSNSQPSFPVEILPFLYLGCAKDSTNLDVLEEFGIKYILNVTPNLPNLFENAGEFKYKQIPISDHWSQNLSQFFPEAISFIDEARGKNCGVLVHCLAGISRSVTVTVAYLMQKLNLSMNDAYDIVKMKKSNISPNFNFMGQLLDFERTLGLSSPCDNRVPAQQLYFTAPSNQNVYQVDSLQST

[4] = target: T2, Dual specificity protein phosphatase 6; format: functional
[5] = target: Beta-2 adrenergic receptor (Homo sapiens, UniProt P07550); experiment: ADRB2 activation measured by internalization – cell-based, FAP fluorogen, flow cytometry, cherry pick 1, dose response (AID 588763); format: functional
[6] = system: HEK293; experiment: HEK293T cell viability loss, resazurin readout – resazurin fluorescence, cytotoxicity control for NF-kB activator project, SAR follow-up (AID 493251); format: functional, cell-based; conditions: Homo sapiens
[7] = system: HEK293; experiment: SAR Analysis of small molecule inhibitors of T-cell specific antigen receptor-induced NF-kB activation in a HEK-293T cell line using a luminescence assay - Set 2. [Related pubchem assays (depositor defined):AID435003, AID435012, AID489026]; format: functional, cell-based; conditions: Homo sapiens
[8] = system: Jurkat; experiment: SAR Analysis of small molecule inhibitors of T-cell specific antigen receptor-induced NF-kB activation in a Jurkat cell line using a luminescence assay - Set 2. [Related pubchem assays (depositor defined):AID435003, AID435012, AID465]; format: functional, cell-based; conditions: Homo sapiens
[9] = system: A-375; experiment: proliferation inhibition in MITF-low A375 cells – cell-based, cherry-pick samples, set 2, counter-screen for MITF modulator project, dose response (AID 540335); format: functional; conditions: Homo sapiens
[10] = NIH-3T3 fibroblast cytotoxicity, dose response, cytotoxicity control, cell-based, fluorescence, Alamar Blue, secondary assay (AID 2327); format: functional;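 note: NIH-3T3 mouse fibroblasts cultured with fluconazole at 8 µg/mL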
[11] = cells; format: functional, cell-based
[12] = cells; format: functional, cell-based; remark: listed apart in the source
[13] = fluconazole-exposed Candida albicans growth modulators – fluorescence, retest, confirmation (AID 2467); format: functional, cell-based
[14] = target: T3, Microphthalmia-associated transcription factor (Homo sapiens, UniProt O75030); experiment: reducers of TRPM1 reporter luminescence, concentration series – cell-based, SK-MEL-5, cherry-picked, set 3, MITF inhibitor project, dose response (AID 493073); format: functional;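 note: SK-MEL-5 melanoma cells with luciferase driven by the MITF target TRPM1 promoter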
T3 sequence (O75030 whole entry): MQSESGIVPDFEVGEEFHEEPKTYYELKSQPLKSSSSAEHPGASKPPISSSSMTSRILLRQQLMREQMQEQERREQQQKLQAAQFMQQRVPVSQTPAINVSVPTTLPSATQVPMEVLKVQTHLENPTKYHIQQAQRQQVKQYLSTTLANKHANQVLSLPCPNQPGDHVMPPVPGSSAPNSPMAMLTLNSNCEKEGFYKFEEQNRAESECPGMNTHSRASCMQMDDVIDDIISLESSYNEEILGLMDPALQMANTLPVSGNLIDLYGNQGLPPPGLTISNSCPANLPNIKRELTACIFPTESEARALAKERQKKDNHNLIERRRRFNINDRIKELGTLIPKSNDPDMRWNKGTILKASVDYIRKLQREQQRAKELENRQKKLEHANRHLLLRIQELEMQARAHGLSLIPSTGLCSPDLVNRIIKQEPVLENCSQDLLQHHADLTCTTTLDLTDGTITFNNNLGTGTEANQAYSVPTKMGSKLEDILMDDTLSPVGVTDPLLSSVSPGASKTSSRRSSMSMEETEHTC

[15] = system: INS1; experiment: INS-1E survival protection against cytokine death – cell-based, luminescence, retest, dose response (AID 449756); format: functional; conditions: Rattus norvegicus;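 note: cell death triggered by IL-1 beta plus TNF-alpha plus IFN-gamma mixture; protective hits raise ATP signal compared with cytokine alone wells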

Sequence of Glyceraldehyde-3-phosphate dehydrogenase (P04406 whole entry): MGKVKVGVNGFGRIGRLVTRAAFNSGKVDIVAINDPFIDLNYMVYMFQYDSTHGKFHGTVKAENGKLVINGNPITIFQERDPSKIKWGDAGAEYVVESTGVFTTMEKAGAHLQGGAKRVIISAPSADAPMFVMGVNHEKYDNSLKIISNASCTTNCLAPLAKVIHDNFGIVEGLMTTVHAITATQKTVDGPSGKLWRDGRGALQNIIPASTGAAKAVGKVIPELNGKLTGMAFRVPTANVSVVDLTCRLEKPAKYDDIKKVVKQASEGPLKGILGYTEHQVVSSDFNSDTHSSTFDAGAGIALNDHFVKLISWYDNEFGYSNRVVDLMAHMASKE
Sequence of Beta-2 adrenergic receptor (P07550 whole entry): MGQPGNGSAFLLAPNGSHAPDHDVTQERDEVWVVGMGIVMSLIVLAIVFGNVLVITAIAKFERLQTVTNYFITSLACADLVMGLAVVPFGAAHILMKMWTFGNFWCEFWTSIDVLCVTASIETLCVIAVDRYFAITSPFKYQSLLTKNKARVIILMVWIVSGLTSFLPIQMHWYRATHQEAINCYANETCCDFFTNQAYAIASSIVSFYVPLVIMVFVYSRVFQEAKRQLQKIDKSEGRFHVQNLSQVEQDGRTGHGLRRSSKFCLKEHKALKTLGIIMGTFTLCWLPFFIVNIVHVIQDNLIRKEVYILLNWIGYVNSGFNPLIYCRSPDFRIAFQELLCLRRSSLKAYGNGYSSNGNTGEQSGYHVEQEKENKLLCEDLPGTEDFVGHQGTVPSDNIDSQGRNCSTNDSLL

Structure (SMILES): CCn1c(=O)n(C)c(=O)n([C@@H](Cc2ccccc2)C(N)=O)c1=O
- IC50 [1]: > 100 µM (not active)
- IC50 [2]: > 100 µM (not active)
- IC50 [3]: > 100 µM (inactive)
- IC50 [4]: > 100 µM (inactive)

Structure (SMILES): CCCn1c(=O)nc(NCc2ccccc2OC)[nH]c1=O
- IC50 [1]: > 100 µM (not active)
- IC50 [2]: > 100 µM (not active)
- IC50 [3]: > 100 µM (inactive)
- IC50 [4]: > 100 µM (inactive)

Structure (SMILES): CCOCCCNC(=O)c1cc(-c2cccnc2)nc2ccc(S(=O)(=O)N3CCC(C)CC3)cc12
- EC50 [5]: 6.09 µM (inactive)

Structure (SMILES): CC(C)CC(=O)NC(c1ccccc1)c1ccc2cccnc2c1O (centres undefined)
- IC50 [6]: 10.4 µM (active)
- IC50 [7]: 7.19 µM (active)
- IC50 [8]: 4.18 µM (active)

Structure (SMILES): O=C(N/N=C\c1cc(Cl)ccc1O)c1ccc(S(=O)(=O)N2CCCCC2)cc1
- AC50 [9]: 46.3 µM (active)
- EC50 [10]: 63.9 µM (inconclusive)
- EC50 [11]: > 350 µM (not active)
- EC50 [12]: 265 µM (active)
- EC50 [13]: 0.381 µM (active)
- AC50 [14]: 2.81 µM (active)
- AC50 [15]: 1.01 µM (active)
